Where “and” joins values, the source holds several entries; their conditions need not be identical. Identical values can stand only once.
System: E. coli strain W3110
Assay: Synergy assays: Biolog chemical sensitivity panels with Group IB metal, coefficient of drug interaction (CDI) from relative growth
Format: cell-based
Details: for CDI (coefficient of drug interaction), gold + biocide: Gold (μM)
[1] = Copper (mM), 1st of 3 copper concentrations (head line not shown), biocide concentration 1 of 4, E. coli
[2] = Copper (mM), 1st of 3 copper concentrations (head line not shown), biocide concentration 3 of 4, E. coli
[3] = Copper (mM), 1st of 3 copper concentrations (head line not shown), biocide concentration 4 of 4, E. coli
[4] = Copper (mM), 2nd of 3 copper concentrations (head line not shown), biocide concentration 1 of 4, E. coli
[5] = Copper (mM), 2nd of 3 copper concentrations (head line not shown), biocide concentration 3 of 4, E. coli
[6] = Copper (mM), 2nd of 3 copper concentrations (head line not shown), biocide concentration 4 of 4, E. coli
[7] = Copper (mM), 3rd of 3 copper concentrations (head line not shown), biocide concentration 1 of 4, E. coli
[8] = Copper (mM), 3rd of 3 copper concentrations (head line not shown), biocide concentration 3 of 4, E. coli
[9] = Copper (mM), 3rd of 3 copper concentrations (head line not shown), biocide concentration 4 of 4, E. coli
[10] = first of 3 gold concentrations, biocide concentration 1 of 4
[11] = first of 3 gold concentrations, biocide concentration 3 of 4
[12] = first of 3 gold concentrations, biocide concentration 4 of 4
[13] = second of 3 gold concentrations, biocide concentration 1 of 4
[14] = second of 3 gold concentrations, biocide concentration 3 of 4
[15] = third of 3 gold concentrations, biocide concentration 1 of 4
[16] = third of 3 gold concentrations, biocide concentration 3 of 4
[17] = third of 3 gold concentrations, biocide concentration 4 of 4
[18] = Silver 0.5 μM, biocide concentration 1 of 4
[19] = Silver 0.5 μM, biocide concentration 3 of 4
[20] = Silver 0.5 μM, biocide concentration 4 of 4
[21] = Silver 1.0 μM, biocide concentration 1 of 4
[22] = Silver 1.0 μM, biocide concentration 3 of 4
[23] = Silver 1.0 μM, biocide concentration 4 of 4
[24] = Silver 5.0 μM, biocide concentration 3 of 4
[25] = Silver 5.0 μM, biocide concentration 4 of 4
[26] = second of 3 gold concentrations, biocide concentration 4 of 4

In the case of `NCC(=O)NO` [glycine hydroxamate], the “CDI (coefficient of drug interaction)” value [1] is reported as 1.36, the “CDI (coefficient of drug interaction)” value (Copper (mM), 1st of 3 copper concentrations (head line not shown), biocide concentration 2 of 4, E. coli) is reported as “Tox” and the “CDI (coefficient of drug interaction)” value [2] is reported as “Tox”. For the same compound, the “CDI (coefficient of drug interaction)” value [3] was “Tox”, the “CDI (coefficient of drug interaction)” value [4] was 1.06 and the “CDI (coefficient of drug interaction)” value (Copper (mM), 2nd of 3 copper concentrations (head line not shown), biocide concentration 2 of 4, E. coli) was 0.47. For the same compound, the “CDI (coefficient of drug interaction)” value [5] was “Tox”, the “CDI (coefficient of drug interaction)” value [6] was “Tox” and the “CDI (coefficient of drug interaction)” value [7] was 1.73. The “CDI (coefficient of drug interaction)” value (Copper (mM), 3rd of 3 copper concentrations (head line not shown), biocide concentration 2 of 4, E. coli) was “Tox”, the “CDI (coefficient of drug interaction)” value [8] was “Tox” and the “CDI (coefficient of drug interaction)” value [9] was “Tox”. The “CDI (coefficient of drug interaction), gold + biocide” value (“CDI … gold + biocide” for short) [10] was 1.08, the “CDI … gold + biocide” value (first of 3 gold concentrations, biocide concentration 2 of 4) was 0.95 and the “CDI … gold + biocide” value [11] was 1.13. The “CDI … gold + biocide” value [12] was 1.01, the “CDI … gold + biocide” value [13] was 1.07 and the “CDI … gold + biocide” value (second of 3 gold concentrations, biocide concentration 2 of 4) was 1.11. The “CDI … gold + biocide” value [14] was 1.19, the “CDI … gold + biocide” value [15] was 1.00 and the “CDI … gold + biocide” value (third of 3 gold concentrations, biocide concentration 2 of 4) was 1.07. The “CDI … gold + biocide” value [16] was 1.39, the “CDI … gold + biocide” value [17] was 1.22 and the CDI [18] was 0.74. The CDI (Silver 0.5 μM, biocide concentration 2 of 4) was 0.72, the CDI [19] was 0.79 and the CDI [20] was 0.76. For the same compound, the CDI [21] was 0.95, the CDI (Silver 1.0 μM, biocide concentration 2 of 4) was 0.99 and the CDI [22] was 0.95. For the same compound, the CDI [23] was 1.07, the CDI (Silver 5.0 μM, biocide concentration 1 of 4) was 1.00 and the CDI (Silver 5.0 μM, biocide concentration 2 of 4) was 0.95. For the same compound, the CDI [24] was 1.09 and the CDI [25] was 0.88.

`CCN1CCN(C(=O)N[C@@H](C(=O)N[C@@H]2C(=O)N3[C@@H]2SC(C)(C)[C@@H]3C(=O)O)c2ccccc2)C(=O)C1=O` [piperacillin] was tested, and the “CDI … gold + biocide” value [12] was “Tox”, the “CDI … gold + biocide” value [26] was “Tox” and the “CDI … gold + biocide” value [17] was “Tox”. For the same compound, the CDI [19] was “Tox”, the CDI [20] was “Tox” and the CDI [22] was “Tox”. For the same compound, the CDI [23] was “Tox”, the CDI [24] was “Tox” and the CDI [25] was “Tox”.

With `O=C1C=C(O)C(=O)c2ccccc21` [lawsone] the “CDI (coefficient of drug interaction)” value (Gold section of Table 5, first of three gold concentrations (μM, value not given), biocide concentration 4 of 4) was “Tox”, the “CDI (coefficient of drug interaction)” value (Gold section of Table 5, second of three gold concentrations (μM, value not given), biocide concentration 4 of 4) was “Tox” and the “CDI (coefficient of drug interaction)” value (Gold section of Table 5, third of three gold concentrations (μM, value not given), biocide concentration 4 of 4) was “Tox”. The CDI [20] was “Tox”, the CDI [23] was “Tox” and the CDI [25] was “Tox”.

`O=C(O)CN(CCOCCOCCN(CC(=O)O)CC(=O)O)CC(=O)O` [EGTA] gave a CDI (Copper 0.1 mM, biocide concentration 1 of 4) of 1.05, a CDI (Copper 0.1 mM, biocide concentration 2 of 4) of 1.25 and a CDI (Copper 0.1 mM, biocide concentration 3 of 4) of 1.28. For the same compound, the CDI (Copper 0.1 mM, biocide concentration 4 of 4) was 1.06, the CDI (Copper 0.5 mM, biocide concentration 1 of 4) was 0.87 and the CDI (Copper 0.5 mM, biocide concentration 2 of 4) was 1.02. The CDI (Copper 0.5 mM, biocide concentration 3 of 4) was 1.06, the CDI (Copper 0.5 mM, biocide concentration 4 of 4) was 1.04 and the CDI (Copper 1.0 mM, biocide concentration 1 of 4) was 0.94. It also gave a CDI (Copper 1.0 mM, biocide concentration 2 of 4) of 1.30, a CDI (Copper 1.0 mM, biocide concentration 3 of 4) of 1.59 and a CDI (Copper 1.0 mM, biocide concentration 4 of 4) of 1.44. The “CDI (coefficient of drug interaction)” value (Gold 5 μM, biocide concentration 1 of 4, E. coli) was 1.05, the “CDI (coefficient of drug interaction)” value (Gold 5 μM, biocide concentration 2 of 4, E. coli) was 0.88 and the “CDI (coefficient of drug interaction)” value (Gold 5 μM, biocide concentration 3 of 4, E. coli) was 0.94. For the same compound, the “CDI (coefficient of drug interaction)” value (Gold 5 μM, biocide concentration 4 of 4, E. coli) was 0.92, the “CDI (coefficient of drug interaction)” value (Gold 25 μM, biocide concentration 1 of 4, E. coli) was 1.07 and the “CDI (coefficient of drug interaction)” value (Gold 25 μM, biocide concentration 2 of 4, E. coli) was 1.00. For the same compound, the “CDI (coefficient of drug interaction)” value (Gold 25 μM, biocide concentration 3 of 4, E. coli) was 0.95, the “CDI (coefficient of drug interaction)” value (Gold 25 μM, biocide concentration 4 of 4, E. coli) was 0.97 and the “CDI (coefficient of drug interaction), silver + biocide” value (“CDI … silver + biocide” for short) (Silver 0.5 μM, 1st of four biocide concentrations, E. coli) was 0.74. For the same compound, the “CDI … silver + biocide” value (Silver 0.5 μM, 2nd of four biocide concentrations, E. coli) was 0.86, the “CDI … silver + biocide” value (Silver 0.5 μM, 3rd of four biocide concentrations, E. coli) was 0.82 and the “CDI … silver + biocide” value (Silver 0.5 μM, 4th of four biocide concentrations, E. coli) was 0.92. For the same compound, the “CDI … silver + biocide” value (Silver 1.0 μM, 1st of four biocide concentrations, E. coli) was 1.02, the “CDI … silver + biocide” value (Silver 1.0 μM, 2nd of four biocide concentrations, E. coli) was 1.07 and the “CDI … silver + biocide” value (Silver 1.0 μM, 3rd of four biocide concentrations, E. coli) was 1.01. For the same compound, the “CDI … silver + biocide” value (Silver 1.0 μM, 4th of four biocide concentrations, E. coli) was 1.02, the “CDI … silver + biocide” value (Silver 5.0 μM, 1st of four biocide concentrations, E. coli) was 1.13 and the “CDI … silver + biocide” value (Silver 5.0 μM, 2nd of four biocide concentrations, E. coli) was 0.98. For the same compound, the “CDI … silver + biocide” value (Silver 5.0 μM, 3rd of four biocide concentrations, E. coli) was 0.72, the “CDI … silver + biocide” value (Silver 5.0 μM, 4th of four biocide concentrations, E. coli) was 0.4 and the “CDI (coefficient of drug interaction)” value ([…], biocide concentration 1 of 4, E. coli) was 1.02. The “CDI (coefficient of drug interaction)” value ([…], biocide concentration 2 of 4, E. coli) was 1.13, the “CDI (coefficient of drug interaction)” value ([…], biocide concentration 3 of 4, E. coli) was 1.04 and the “CDI (coefficient of drug interaction)” value ([…], biocide concentration 4 of 4, E. coli) was 1.11.

With `c1ccc(-c2nn(-c3ccccc3)[n+](-c3cccc4ccccc34)n2)cc1` [Tetrazolium violet] the “CDI (coefficient of drug interaction)” value [2] was “Tox”, the “CDI (coefficient of drug interaction)” value [3] was “Tox” and the “CDI (coefficient of drug interaction)” value [5] was “Tox”. For the same compound, the “CDI (coefficient of drug interaction)” value [6] was “Tox”, the “CDI (coefficient of drug interaction)” value [8] was “Tox” and the “CDI (coefficient of drug interaction)” value [9] was “Tox”. For the same compound, the “CDI … gold + biocide” value [11] was “Tox”, the “CDI … gold + biocide” value [12] was “Tox” and the “CDI … gold + biocide” value [14] was “Tox”. For the same compound, the “CDI … gold + biocide” value [26] was “Tox”, the “CDI … gold + biocide” value [16] was “Tox” and the “CDI … gold + biocide” value [17] was “Tox”. For the same compound, the CDI [19] was “Tox”, the CDI [20] was “Tox” and the CDI [22] was “Tox”. For the same compound, the CDI [23] was “Tox”, the CDI [24] was “Tox” and the CDI [25] was “Tox”.

In the case of polymyxin B, the “CDI (coefficient of drug interaction)” value [1] is reported as 0.90, the “CDI (coefficient of drug interaction)” value [2] is reported as “Tox” and the “CDI (coefficient of drug interaction)” value [3] is reported as “Tox”. For the same compound, the “CDI (coefficient of drug interaction)” value [4] was 0.97 and 0.75, the “CDI (coefficient of drug interaction)” value [5] was “Tox” and the “CDI (coefficient of drug interaction)” value [6] was “Tox”. The “CDI (coefficient of drug interaction)” value [7] was 0.82 and 0.56, the “CDI (coefficient of drug interaction)” value [8] was “Tox” and the “CDI (coefficient of drug interaction)” value [9] was “Tox”. The “CDI … gold + biocide” value [10] was 1.07 and 0.97, the “CDI … gold + biocide” value [12] was “Tox” and the “CDI … gold + biocide” value [13] was 1.10 and 0.99. For the same compound, the “CDI … gold + biocide” value [26] was “Tox”, the “CDI … gold + biocide” value [15] was 1.00 and 0.92 and the “CDI … gold + biocide” value [17] was “Tox”. For the same compound, the CDI [18] was 1.37 and 0.79, the CDI [20] was “Tox” and the CDI [21] was 1.23 and 0.85. The CDI [23] was “Tox” and the CDI [25] was “Tox”.

Reference: US11382328B2, “Rapid drug discovery methods for pathogen inactivation” (priority 2019, dated 2022)
